The source of these data is ChEMBL document CHEMBL4431368, “Development of single and mixed isoform selectivity PI3Kδ inhibitors by targeting Asn836 of PI3Kδ” (Bioorg Med Chem Lett, 2016).

pIC50: −log10 of the molar value. Activity calls are given as the source filed them. No cut-off for these calls is given here.

In test [1] the target is T1, Phosphatidylinositol 4,5-bisphosphate 3-kinase catalytic subunit delta isoform (Homo sapiens, UniProt O00329).
T1 sequence (O00329 whole entry): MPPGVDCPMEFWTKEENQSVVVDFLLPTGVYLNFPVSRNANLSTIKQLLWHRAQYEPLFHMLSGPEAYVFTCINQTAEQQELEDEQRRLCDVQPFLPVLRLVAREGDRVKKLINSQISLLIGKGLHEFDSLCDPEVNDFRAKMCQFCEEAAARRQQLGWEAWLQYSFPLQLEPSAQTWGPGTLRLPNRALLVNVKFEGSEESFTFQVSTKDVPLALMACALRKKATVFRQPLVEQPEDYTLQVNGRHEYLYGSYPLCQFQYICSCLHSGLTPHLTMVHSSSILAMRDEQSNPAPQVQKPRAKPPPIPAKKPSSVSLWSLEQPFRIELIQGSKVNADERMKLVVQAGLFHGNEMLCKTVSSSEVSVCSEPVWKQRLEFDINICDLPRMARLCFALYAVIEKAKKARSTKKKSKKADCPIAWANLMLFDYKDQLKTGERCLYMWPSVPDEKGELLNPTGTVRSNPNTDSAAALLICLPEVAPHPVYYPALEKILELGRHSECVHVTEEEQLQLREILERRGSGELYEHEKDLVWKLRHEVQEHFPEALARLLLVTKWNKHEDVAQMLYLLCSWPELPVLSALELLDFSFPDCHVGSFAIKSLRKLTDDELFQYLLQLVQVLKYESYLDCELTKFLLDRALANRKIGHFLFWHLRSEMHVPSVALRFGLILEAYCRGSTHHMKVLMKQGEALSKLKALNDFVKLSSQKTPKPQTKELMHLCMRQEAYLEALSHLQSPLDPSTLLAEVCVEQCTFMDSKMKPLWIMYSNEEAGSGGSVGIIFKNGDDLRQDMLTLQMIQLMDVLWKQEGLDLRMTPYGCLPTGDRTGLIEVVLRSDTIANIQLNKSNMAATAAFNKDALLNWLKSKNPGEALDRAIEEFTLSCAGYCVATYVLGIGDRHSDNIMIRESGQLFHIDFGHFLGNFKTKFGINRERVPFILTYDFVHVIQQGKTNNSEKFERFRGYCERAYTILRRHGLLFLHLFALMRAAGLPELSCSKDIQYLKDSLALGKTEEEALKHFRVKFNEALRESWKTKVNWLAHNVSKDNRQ
The test is described as follows: Inhibition of PI3Kdelta (unknown origin) expressed in baculovirus expression system by kinase-glo luminescence assay.

The target of test [2] is Phosphatidylinositol 4,5-bisphosphate 3-kinase catalytic subunit alpha isoform (Homo sapiens, UniProt P42336). The test is described as follows: Inhibition of PI3Kalpha (unknown origin) expressed in baculovirus expression system by kinase-glo luminescence assay.
Test [3] concerns the target Phosphatidylinositol 4,5-bisphosphate 3-kinase catalytic subunit gamma isoform (Homo sapiens, UniProt P48736). The test is described as follows: Inhibition of PI3Kgamma (unknown origin) expressed in baculovirus expression system by kinase-glo luminescence assay.
Test [4] concerns the target Phosphatidylinositol 4,5-bisphosphate 3-kinase catalytic subunit beta isoform (Homo sapiens, UniProt P42338). The test is described as follows: Inhibition of PI3Kbeta (unknown origin) expressed in baculovirus expression system by kinase-glo luminescence assay.
For test [5], the target named is T2, Phosphatidylinositol 4,5-bisphosphate 3-kinase catalytic subunit delta isoform (Homo sapiens) (UniProt O00329).
T2 sequence (whole entry): T1 sequence (O00329 whole entry)
The test is described as follows: Inhibition of PI3Kdelta in human NAMALWA cells assessed as suppression of Akt S473 phosphorylation levels at […] after 2 hrs by Western blot analysis. It is filed as cell-based.

Test [6] has as its target Phosphatidylinositol 4,5-bisphosphate 3-kinase catalytic subunit delta isoform (Homo sapiens, UniProt O00329, N836D). The test is described as follows: Inhibition of PI3Kdelta N836D mutant (unknown origin) expressed in Sf21 cells co-expressing p85 by kinase-glo luminescence assay.
For test [7], the species on record is Homo sapiens. The test is described as follows: Selectivity ratio of IC50 for PI3Kdelta N836D mutant (unknown origin) expressed in Sf21 cells to IC50 for wild type PI3Kdelta (unknown origin) expressed in baculovirus expression system.
A short description of test [8]: Inhibition of PI3Kalpha Q859D mutant (unknown origin) expressed in baculovirus expression system by kinase-glo luminescence assay. Details: species or system Homo sapiens.
Test [9] can be described thus: Inhibition of PI3Kbeta D862 mutant (unknown origin) expressed in baculovirus expression system by kinase-glo luminescence assay. Set-up: species or system Homo sapiens.
Test [10] is filed under the species Homo sapiens. The test is described as follows: Selectivity ratio of IC50 for wild type PI3Kbeta (unknown origin) expressed in baculovirus expression system to IC50 for PI3Kbeta D862 mutant (unknown origin) expressed in baculovirus expression system.

Chain of Phosphatidylinositol 4,5-bisphosphate 3-kinase catalytic subunit gamma isoform (P48736 whole entry, canonical isoform): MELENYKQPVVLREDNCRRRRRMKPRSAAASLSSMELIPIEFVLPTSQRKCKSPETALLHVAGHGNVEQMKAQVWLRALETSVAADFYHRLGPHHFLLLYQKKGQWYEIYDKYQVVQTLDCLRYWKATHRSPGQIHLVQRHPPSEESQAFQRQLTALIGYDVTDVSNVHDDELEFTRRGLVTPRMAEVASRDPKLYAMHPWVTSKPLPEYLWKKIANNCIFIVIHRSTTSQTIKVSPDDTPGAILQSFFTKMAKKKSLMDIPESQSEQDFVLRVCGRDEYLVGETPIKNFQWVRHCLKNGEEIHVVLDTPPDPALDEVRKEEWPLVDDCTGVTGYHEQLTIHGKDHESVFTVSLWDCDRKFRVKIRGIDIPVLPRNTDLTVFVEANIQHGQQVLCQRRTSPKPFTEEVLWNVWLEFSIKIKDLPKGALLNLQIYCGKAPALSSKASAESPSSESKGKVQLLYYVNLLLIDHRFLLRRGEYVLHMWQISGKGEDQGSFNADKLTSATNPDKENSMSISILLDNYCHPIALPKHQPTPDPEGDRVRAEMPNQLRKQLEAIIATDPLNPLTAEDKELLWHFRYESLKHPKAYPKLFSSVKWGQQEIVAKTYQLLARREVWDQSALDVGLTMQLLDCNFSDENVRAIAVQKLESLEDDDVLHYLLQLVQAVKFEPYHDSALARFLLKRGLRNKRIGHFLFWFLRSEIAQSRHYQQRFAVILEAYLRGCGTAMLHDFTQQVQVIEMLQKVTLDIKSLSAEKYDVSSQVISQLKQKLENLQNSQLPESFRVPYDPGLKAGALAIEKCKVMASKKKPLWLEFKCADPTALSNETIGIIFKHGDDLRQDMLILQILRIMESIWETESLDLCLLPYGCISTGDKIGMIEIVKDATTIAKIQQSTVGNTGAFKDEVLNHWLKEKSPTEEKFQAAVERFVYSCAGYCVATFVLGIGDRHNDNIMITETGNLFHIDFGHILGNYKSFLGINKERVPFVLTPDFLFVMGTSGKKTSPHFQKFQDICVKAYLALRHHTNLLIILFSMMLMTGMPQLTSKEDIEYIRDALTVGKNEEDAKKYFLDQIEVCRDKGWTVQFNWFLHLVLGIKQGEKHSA
Chain of Phosphatidylinositol 4,5-bisphosphate 3-kinase catalytic subunit beta isoform (P42338 whole entry, canonical isoform): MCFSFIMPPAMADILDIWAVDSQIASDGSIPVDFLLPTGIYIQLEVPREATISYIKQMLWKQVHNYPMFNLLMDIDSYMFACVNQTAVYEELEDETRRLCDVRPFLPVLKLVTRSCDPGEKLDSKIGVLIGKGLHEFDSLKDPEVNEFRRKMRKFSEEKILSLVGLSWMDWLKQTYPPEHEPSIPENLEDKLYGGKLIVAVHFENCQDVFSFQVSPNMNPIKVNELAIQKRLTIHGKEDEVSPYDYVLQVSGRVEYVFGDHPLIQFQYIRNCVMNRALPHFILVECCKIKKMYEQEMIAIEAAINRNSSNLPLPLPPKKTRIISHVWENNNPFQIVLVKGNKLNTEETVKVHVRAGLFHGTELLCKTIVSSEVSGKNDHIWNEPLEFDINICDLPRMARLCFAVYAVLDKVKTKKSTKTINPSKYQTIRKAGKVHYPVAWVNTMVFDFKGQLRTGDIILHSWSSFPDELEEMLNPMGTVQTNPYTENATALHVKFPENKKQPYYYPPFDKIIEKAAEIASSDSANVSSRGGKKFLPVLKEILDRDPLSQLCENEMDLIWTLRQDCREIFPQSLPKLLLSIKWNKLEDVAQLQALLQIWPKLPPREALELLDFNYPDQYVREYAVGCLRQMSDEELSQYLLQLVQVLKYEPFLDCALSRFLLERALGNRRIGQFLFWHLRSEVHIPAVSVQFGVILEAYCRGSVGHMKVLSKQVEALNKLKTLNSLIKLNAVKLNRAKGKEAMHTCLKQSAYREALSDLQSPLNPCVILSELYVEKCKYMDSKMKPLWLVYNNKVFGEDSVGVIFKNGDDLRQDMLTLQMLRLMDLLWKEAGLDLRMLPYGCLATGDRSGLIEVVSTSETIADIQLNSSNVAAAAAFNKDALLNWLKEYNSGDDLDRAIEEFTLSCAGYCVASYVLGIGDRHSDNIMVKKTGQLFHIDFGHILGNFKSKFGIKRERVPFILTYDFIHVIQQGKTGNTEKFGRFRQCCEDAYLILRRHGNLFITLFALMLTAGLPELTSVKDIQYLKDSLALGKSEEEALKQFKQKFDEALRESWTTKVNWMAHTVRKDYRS
Chain of Phosphatidylinositol 4,5-bisphosphate 3-kinase catalytic subunit alpha isoform (P42336 whole entry, canonical isoform): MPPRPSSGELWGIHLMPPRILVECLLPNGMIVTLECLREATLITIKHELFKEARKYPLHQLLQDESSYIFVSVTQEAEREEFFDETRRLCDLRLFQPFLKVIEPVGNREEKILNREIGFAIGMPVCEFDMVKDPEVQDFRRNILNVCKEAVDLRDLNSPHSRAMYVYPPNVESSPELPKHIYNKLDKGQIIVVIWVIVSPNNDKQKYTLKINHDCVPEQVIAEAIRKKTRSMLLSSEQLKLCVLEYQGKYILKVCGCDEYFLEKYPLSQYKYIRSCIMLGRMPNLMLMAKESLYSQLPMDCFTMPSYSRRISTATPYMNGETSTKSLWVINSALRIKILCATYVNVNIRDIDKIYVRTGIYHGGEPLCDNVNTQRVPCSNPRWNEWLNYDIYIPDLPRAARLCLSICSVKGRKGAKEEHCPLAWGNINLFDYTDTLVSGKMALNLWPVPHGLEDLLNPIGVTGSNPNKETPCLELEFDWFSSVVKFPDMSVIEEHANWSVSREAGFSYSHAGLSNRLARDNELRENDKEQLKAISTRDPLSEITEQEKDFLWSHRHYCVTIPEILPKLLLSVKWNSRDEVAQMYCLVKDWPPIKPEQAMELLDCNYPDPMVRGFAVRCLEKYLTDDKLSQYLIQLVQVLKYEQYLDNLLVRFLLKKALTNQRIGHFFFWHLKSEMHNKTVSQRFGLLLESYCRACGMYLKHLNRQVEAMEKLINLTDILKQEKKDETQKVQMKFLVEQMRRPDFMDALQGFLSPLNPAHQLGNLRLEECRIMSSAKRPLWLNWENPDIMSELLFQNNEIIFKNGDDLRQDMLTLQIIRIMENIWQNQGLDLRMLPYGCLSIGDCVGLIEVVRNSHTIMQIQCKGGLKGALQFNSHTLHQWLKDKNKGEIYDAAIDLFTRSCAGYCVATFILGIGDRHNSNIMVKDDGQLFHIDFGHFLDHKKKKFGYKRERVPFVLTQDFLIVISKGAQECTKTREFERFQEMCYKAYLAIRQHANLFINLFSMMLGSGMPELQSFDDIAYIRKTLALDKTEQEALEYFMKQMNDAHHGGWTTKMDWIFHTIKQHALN
Chain of Phosphatidylinositol 4,5-bisphosphate 3-kinase catalytic subunit delta isoform (Homo sapiens, UniProt O00329, N836D) (O00329 whole entry N836D, canonical isoform): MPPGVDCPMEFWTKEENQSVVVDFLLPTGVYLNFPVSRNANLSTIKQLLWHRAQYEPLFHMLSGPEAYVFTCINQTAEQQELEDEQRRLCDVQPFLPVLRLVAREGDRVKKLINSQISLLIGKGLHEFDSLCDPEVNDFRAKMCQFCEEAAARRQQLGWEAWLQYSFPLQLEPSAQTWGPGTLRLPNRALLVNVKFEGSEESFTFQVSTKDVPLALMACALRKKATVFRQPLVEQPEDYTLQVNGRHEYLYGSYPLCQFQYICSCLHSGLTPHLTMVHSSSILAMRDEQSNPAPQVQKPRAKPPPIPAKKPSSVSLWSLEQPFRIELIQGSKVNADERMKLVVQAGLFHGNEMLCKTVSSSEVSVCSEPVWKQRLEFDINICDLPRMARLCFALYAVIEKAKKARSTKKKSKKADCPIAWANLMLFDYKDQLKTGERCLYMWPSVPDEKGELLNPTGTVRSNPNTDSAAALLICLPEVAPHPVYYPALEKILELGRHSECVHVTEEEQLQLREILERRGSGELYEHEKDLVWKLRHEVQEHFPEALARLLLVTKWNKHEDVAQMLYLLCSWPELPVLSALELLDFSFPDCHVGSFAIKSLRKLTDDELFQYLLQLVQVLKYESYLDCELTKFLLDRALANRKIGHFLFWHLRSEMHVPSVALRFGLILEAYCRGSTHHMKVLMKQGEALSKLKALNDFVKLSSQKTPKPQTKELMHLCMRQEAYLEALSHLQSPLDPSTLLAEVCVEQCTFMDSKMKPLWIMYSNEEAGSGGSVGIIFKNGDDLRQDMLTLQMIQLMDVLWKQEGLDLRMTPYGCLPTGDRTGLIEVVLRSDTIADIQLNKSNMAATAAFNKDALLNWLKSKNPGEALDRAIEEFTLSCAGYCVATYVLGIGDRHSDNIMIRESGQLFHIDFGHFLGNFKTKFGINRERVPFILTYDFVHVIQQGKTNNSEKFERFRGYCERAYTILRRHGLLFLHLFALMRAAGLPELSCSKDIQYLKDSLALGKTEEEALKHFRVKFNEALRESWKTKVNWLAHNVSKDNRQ

For the molecule `NC(=O)[C@H](Cc1ccccc1)NC(=O)[C@H]1CCCN(c2nc(N3CCOCC3)nc(-n3c(C(F)F)nc4ccccc43)n2)C1`, the negative-log IC50 (pIC50) is 7.24 in [1], 6.45 in test [2], 5.70 in test [3] and 6.47 in [4].

Consider `CC(C)[C@H](NC(=O)C1CCN(c2nc(N3CCOCC3)nc(-n3c(C(F)F)nc4ccccc43)n2)CC1)C(N)=O`, for which the pIC50 in test [1] was 6.84; in test [2] it was 6.72; in test [3], 6.36; in [4] it was 6.22.

Turning to `O=C([C@H]1CCCN1)N1CCN(c2nc(N3CCOCC3)nc(-n3c(C(F)F)nc4ccccc43)n2)CC1`, the negative logarithm of the IC50 (pIC50) in test [2] was 5.58; in test [3] it was 5.23; in test [6], 8.05. Further, the inhibition result in test [5] is “Active”.

As to `O=C(O)[C@H]1CCCN(c2nc(N3CCOCC3)nc(-n3c(C(F)F)nc4ccccc43)n2)C1`, the pIC50 was 7.38 in [1], 7.40 in [2], 6.64 in [3] and 6.67 in [4].

Regarding `C[C@@H](NC(=O)C1CCN(c2nc(N3CCOCC3)nc(-n3c(C(F)F)nc4ccccc43)n2)CC1)C(N)=O`, the pIC50 in test [1] is 7.36; in [2], 6.94; in test [8], 7.00; in [3], 6.27; in test [9] it was 6.91; in test [6], 5.72. For the same molecule, in test [4], the pIC50 is 6.22. Further, the inhibition result in test [5] is “Active”. In addition, the Ratio IC50 in the test filed under Homo sapiens [7] amounted to 43; in the test filed under Homo sapiens [10] it was 5.

Regarding `O=C(O)C1CCN(c2nc(N3CCOCC3)nc(-n3c(C(F)F)nc4ccccc43)n2)CC1`, the pIC50 in [1] was 7.42; in [2], 6.74; in test [3], 7.19; in [4], 6.66.

Regarding `O=C(CN1CCN(c2nc(N3CCOCC3)nc(-n3c(C(F)F)nc4ccccc43)n2)CC1)[C@H]1CCCN1`, the negative logarithm of the IC50 (pIC50) was 7.28 in test [1]; 5.75 in test [2]; 5.22 in test [3]; 8.40 in test [6]; 7.22 in [4].

As for `NC(=O)[C@H](CO)NC(=O)C1CCN(c2nc(N3CCOCC3)nc(-n3c(C(F)F)nc4ccccc43)n2)CC1`, the pIC50 is 7.54 in test [1], 7.17 in test [2], 6.28 in [3] and 6.79 in test [4].

Consider `O=C([C@@H]1CCCCN1)N1CCN(c2nc(N3CCOCC3)nc(-n3c(C(F)F)nc4ccccc43)n2)CC1`, for which the negative logarithm of the IC50 (pIC50) was 7.16 in [1]; 5.54 in [2]; 5.26 in test [3]; 7.62 in [6]; 7.23 in test [4].

`N[C@H]1CC[C@@H](C(=O)N2CCN(c3nc(N4CCOCC4)nc(-n4c(C(F)F)nc5ccccc54)n3)CC2)CC1`: the pIC50 was 6.84 in [1], 5.41 in test [2], < 5.00 in test [3] and 5.47 in test [4].

Take `NC(=O)CNC(=O)[C@@H]1CCCN(c2nc(N3CCOCC3)nc(-n3c(C(F)F)nc4ccccc43)n2)C1`: the pIC50 in test [1] was 7.42; in [2] it was 7.08; in [3] it was 6.35; in test [4], 6.78.

`NC(=O)[C@H](Cc1ccccc1)NC(=O)[C@@H]1CCCN(c2nc(N3CCOCC3)nc(-n3c(C(F)F)nc4ccccc43)n2)C1`: the pIC50 in [1] was 6.58; in test [2] it was 6.04; in [3], 5.86; in test [4], 5.76.

Regarding `C[C@H](NC(=O)C1CCN(c2nc(N3CCOCC3)nc(-n3c(C(F)F)nc4ccccc43)n2)CC1)C(N)=O`, the pIC50 in test [1] was 7.40; in test [2] it was 6.91; in [3], 6.36; in [4], 6.68.

In the case of `NC(=O)CNC(=O)C1CCN(c2nc(N3CCOCC3)nc(-n3c(C(F)F)nc4ccccc43)n2)CC1`, the negative logarithm of the IC50 (pIC50) is 7.18 in test [1]; 7.01 in [2]; 6.30 in test [3]; 6.77 in test [6]; 6.48 in test [4]. Further, the Ratio IC50 in the test filed under Homo sapiens [7] was determined as 2.6.

On to `O=C(C[C@@H]1CCCN1)N1CCN(c2nc(N3CCOCC3)nc(-n3c(C(F)F)nc4ccccc43)n2)CC1`, for which the pIC50 in [1] is 7.66; in test [2] it was 5.69; in test [3] it was 5.24; in [6], 8.15; in test [4] it was 6.84.

For the molecule `O=C([C@@H]1CCCN1)N1CCN(c2nc(N3CCOCC3)nc(-n3c(C(F)F)nc4ccccc43)n2)CC1`, the inhibition entry in test [5] was “Active”.

As to `NC(=O)CNC(=O)[C@H]1CCCN(c2nc(N3CCOCC3)nc(-n3c(C(F)F)nc4ccccc43)n2)C1`, the negative-log IC50 (pIC50) was 7.47 in test [1]; 7.49 in [2]; 6.71 in [3]; 7.02 in test [6]; 7.62 in [4]. For the same molecule, in the test filed under Homo sapiens [7], the Ratio IC50 came out at 3.

Consider `O=C([C@H]1CCCCN1)N1CCN(c2nc(N3CCOCC3)nc(-n3c(C(F)F)nc4ccccc43)n2)CC1`, for which the negative logarithm of the IC50 (pIC50) in [1] was 7.30; in test [2] it was 5.63; in [3], 5.44; in test [6], 7.44; in [4], 6.11.

Take `O=C(O)[C@@H]1CCCN(c2nc(N3CCOCC3)nc(-n3c(C(F)F)nc4ccccc43)n2)C1`: the pIC50 was 6.79 in test [1], 6.74 in [2], 6.61 in test [3] and 6.37 in [4].

With `NC(=O)[C@H](Cc1ccccc1)NC(=O)C1CCN(c2nc(N3CCOCC3)nc(-n3c(C(F)F)nc4ccccc43)n2)CC1`, the pIC50 in test [1] was 7.36; in test [2], 6.72; in [3], 6.15; in test [4] it was 6.29.
